Values joined by “and” are separate entries in the source; they are usually repeats but may differ in a detail not shown here. Equal values may be shown once.
Assays:
EGFR-TK [1] = biological target: T1, EGFR-TK (Homo sapiens, UniProt P00533); assay: Inhibitory potency against EGFR-TK (SignaTECT protein kinase assay, [32P]ATP phosphorylation); type: biochemical; design: The EGF receptor used was an immunopurified receptor from human A431 cells (Promega, WI); purchased Promega; host or cells: A431 cells (endogenous receptor, immunopurified); details: immunopurified EGF receptor from human A431 cells, inhibition of phosphorylation by [32P]ATP, triplicate
Description: The inhibitory potency of the new derivatives against EGFR-TK was measured using a Signa TECT® Protein Kinase Assay System (Promega, WI) according to the protein tyrosine kinase assay protocol of the attached document. The EGF receptor used was an immunopurified receptor from human A431 cells (Promega, WI). […] The reaction was allowed to proceed for 10 min at 30 °C and then was stopped by the addition of guanidine hydrochloride solution (7.5 M, 13 μL). Each reaction mixture (12.5 μL) was spotted onto a biotin capture membrane. After all of the samples had been spotted, they were washed and rinsed as follows: 1 time for 30 s with 200 mL of 2 M NaCl, 3 times for 2 min each with 200 mL of 2 M NaCl, 4 times for 2 min each with 200 mL of 2 M NaCl in 1 % H3PO4, and 2 times for 30 s each with 100 mL of deionized water. The biotin capture membranes were dried on a piece of aluminum foil under a heat lamp for 5–10 min. The radioactivity trapped on the biotin capture membranes was counted with a liquid scintillation counter in 10 mL of scintillation fluid. The IC50 values were determined from sigmoid curves of the percent inhibition of [^32P]ATP radioactivity.
The inhibitory potency of new phenoxyquinazoline derivatives against EGFR-TK in A431 cell membranes was measured as the inhibition of EGFR phosphorylation by [^32P]ATP.

A431 tumor = assay: Tumor uptake of radioiodinated ligands in A431 tumor-bearing mice; type: in vivo, balb/c nude mice; details: A431 tumor-bearing mice; for accumulation in tumors: i.v., 1 h post injection
Description: A suspension of 1 × 10^7 A431 cells in 0.1 mL of medium was inoculated subcutaneously in male balb/c nude mice (4 weeks old, 20–25 g, n = 3). After approximately 2 weeks, when the solid tumor had grown to optimal size, the mice were used for tumor uptake studies. [^125I]6a–d (37 kBq, 74 TBq/mmol) in 0.1 mL of saline was injected intravenously into tumor-bearing mice via the lateral tail vein. At 1 or 24 h after administration, the animals were sacrificed. Samples of tumor were excised and weighed. Radioactivity was measured using a well-type NaI(Tl) scintillation gamma counter. The results were expressed in terms of percentage of injected dose per gram of tumor.

[2] = biological target: EGFR-TK in A431 cell membranes (Homo sapiens, UniProt P00533); type: binding; details: A431 P2 membranes, Scatchard analysis
Description: Assays were carried out as described in the previous section. Crude P2 membrane fractions (A431or NALM6, 0.1 mg of protein, 10 μL) and [^125I]PYK (1–300 nM, 100 μL, 0.74 kBq) were used. […] Specific binding was defined as the difference between the total and non-specific binding. Scatchard plot analysis of the saturation binding data was used to determine the equilibrium dissociation constant (K d) and the maximal number of binding sites (B max).
The crude P2 membrane fraction from A431 or NAlM6 cells were used in further binding experiments for pharmacological characterization. […] While, in the NALM6 as a negative-EGFR leukemia cell line, [^125I]PYK binding to cell membranes was undetectable.

EGFR-TK [3] = test system: EGFR-TK; design: method as in PMID 21058048, PMID 22354330; details: ref [21], [22]; cited from earlier work
EGFR-TK [4] = biological target: T1, EGFR-TK; details: inhibitor 1 μM, A431 P2 membranes, 60 min, 25 °C
Description: The difference between non-treatment and pretreatment data was examined by Student’s paired t test.

[5] = test system: A431 epidermoid carcinoma cell line; details: in vitro; ref [12], [13]; read-out: IC50, cytotoxicity A431 epidermoid carcinoma cell line; cited from earlier work
[6] = design: method as in PMID 21058048, PMID 22354330; details: ref [21], [22]; cited from earlier work

T1 sequence (P00533 25-1210): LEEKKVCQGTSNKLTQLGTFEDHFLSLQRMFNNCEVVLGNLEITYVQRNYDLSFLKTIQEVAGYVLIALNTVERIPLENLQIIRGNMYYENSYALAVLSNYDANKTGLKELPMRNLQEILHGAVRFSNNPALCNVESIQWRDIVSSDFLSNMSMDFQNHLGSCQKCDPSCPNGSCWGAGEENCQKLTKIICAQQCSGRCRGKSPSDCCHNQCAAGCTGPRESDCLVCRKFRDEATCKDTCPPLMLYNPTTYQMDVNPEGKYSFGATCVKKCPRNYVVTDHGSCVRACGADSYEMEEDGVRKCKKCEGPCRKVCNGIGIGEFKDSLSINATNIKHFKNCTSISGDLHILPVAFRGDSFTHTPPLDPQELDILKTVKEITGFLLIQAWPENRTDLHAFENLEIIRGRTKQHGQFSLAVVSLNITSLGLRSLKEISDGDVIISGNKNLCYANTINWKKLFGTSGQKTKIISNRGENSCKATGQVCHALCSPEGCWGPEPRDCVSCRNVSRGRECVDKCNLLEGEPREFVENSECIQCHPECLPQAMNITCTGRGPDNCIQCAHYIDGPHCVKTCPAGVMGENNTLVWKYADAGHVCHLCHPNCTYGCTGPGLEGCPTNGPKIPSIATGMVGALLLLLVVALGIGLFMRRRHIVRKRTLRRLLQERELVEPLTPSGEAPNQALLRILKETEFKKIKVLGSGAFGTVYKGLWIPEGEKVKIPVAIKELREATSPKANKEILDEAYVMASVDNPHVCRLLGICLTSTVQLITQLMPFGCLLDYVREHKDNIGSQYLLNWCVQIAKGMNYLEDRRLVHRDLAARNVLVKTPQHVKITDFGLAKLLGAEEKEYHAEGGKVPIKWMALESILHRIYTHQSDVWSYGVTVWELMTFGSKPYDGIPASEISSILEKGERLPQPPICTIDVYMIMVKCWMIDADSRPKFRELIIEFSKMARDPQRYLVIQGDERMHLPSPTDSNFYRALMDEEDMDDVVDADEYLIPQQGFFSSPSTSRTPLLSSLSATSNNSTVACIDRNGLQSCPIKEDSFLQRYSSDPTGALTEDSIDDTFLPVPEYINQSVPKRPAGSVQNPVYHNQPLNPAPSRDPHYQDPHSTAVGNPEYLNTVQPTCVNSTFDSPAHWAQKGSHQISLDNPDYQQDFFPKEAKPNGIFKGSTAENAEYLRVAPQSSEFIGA
Sequence of EGFR-TK in A431 cell membranes (P00533 25-1210): as above

SMILES	IC50 (EGFR-TK [1])	melting point [°C]	other results
CCOc1cc2ncnc(Oc3cccc(I)c3)c2cc1OCCCc1ccccc1 [6e, 6-(3-Phenylpropoxy)-7-ethoxy-4-(3′-iodophenoxy)quinazoline]	> 500 nM	108 to 109	
CCOc1cc2ncnc(Oc3cccc([125I])c3)c2cc1OCCCN(C)C [[^125I]6d]			retention in tumors (in words) (A431 tumor; 24 h after injection): low retention; accumulation in tumors (A431 tumor): 0.55 ± 0.12 % ID/g tissue
CCOc1cc2ncnc(Oc3cccc(I)c3)c2cc1OCCCN1CCOCC1 [[^125I]PYK]			Kd [2]: 51.3 ± 11.1 nM
CCOc1cc2ncnc(Oc3cccc(I)c3)c2cc1OCCCN1CCN(C)CC1 [6b, 6-[3-(4-Methylpiperazinylpropoxy)]-7-ethoxy-4-(3′-iodophenoxy)quinazoline]	16.5 ± 1.8 nM		
CCOc1cc2ncnc(Oc3cccc(I)c3)c2cc1OCC [PHY, 4-(3-Iodophenoxy)-6,7-diethoxyquinazoline, reference compound]	49 ± 7.2 nM		IC50 (EGFR-TK [3]): 49 ± 7.2 nM
O=P(O)(O)C(O)c1ccc2ccccc2c1 (centres unmarked) [HNMPA]			blocking effect on [125I]PYK binding to EGFR-TK (EGFR-TK [4]): failed to block
CCOc1cc2ncnc(Oc3cccc(I)c3)c2cc1OCCCN1CCOCC1 [6a, 6-(3-Morpholinopropoxy)-7-ethoxy-4-(3′-iodophenoxy)quinazoline]	12 ± 3.9 nM	135 to 137	
COc1cc2ncnc(Nc3cccc(Br)c3)c2cc1OC [PD153035, 4-(3-bromoanilino)-6,7-dimethoxyquinazoline]			IC50 [5]: 0.029 nM
CCOc1cc2ncnc(Nc3cccc(I)c3)c2cc1OCC [m-IPQ, 4-(3-Iodoanilino)-6,7-diethoxyquinazoline]			blocking effect on [125I]PYK binding to EGFR-TK (EGFR-TK [4]): significant reduction; IC50 (EGFR-TK [3]): 50.5 ± 3.5 nM
CCOc1cc2ncnc(Oc3cccc([125I])c3)c2cc1OCC [[^125I]PHY]			accumulation in tumors (A431 tumor): 0.56 ± 0.12 % ID/g tissue; tumor-to-blood ratio [6]: 0.94–1.50; tumor-to-muscle ratio [6]: 1.02–1.95
CCOc1cc2ncnc(Oc3cccc(I)c3)c2cc1OCc1ccccc1 [6f, 6-Benzyloxy-7-ethoxy-4-(3′-iodophenoxy)quinazoline]	> 500 nM	140 to 142	
CCOc1cc2ncnc(Oc3cccc(I)c3)c2cc1OC(C)C [6c, 6-Isopropoxy-7-ethoxy-4-(3′-iodophenoxy)quinazoline]	41.5 nM and 113 nM	59 to 62	
CCOc1cc2ncnc(Oc3cccc(I)c3)c2cc1OCCCN(C)C [6d, 6-(3-Dimethylaminopropoxy)-7-ethoxy-4-(3′-iodophenoxy) quinazoline]	113 nM and 41.5 nM	64 to 67	

Source: publication PMC3672506, “A useful EGFR-TK ligand for tumor diagnosis with SPECT: development of radioiodinated 6-(3-morpholinopropoxy)-7-ethoxy-4-(3′-iodophenoxy)quinazoline” (Annals of Nuclear Medicine, 2013)
